Consider 2 molecules from patent US20090325891A1, “Cartilage regeneration-promoting agent” (EISAI FOOD & CHEMICAL CO., LTD., priority 2006, published 2009).

Entries after “also recorded” stand apart in the source; their conditions may differ.

Data set [1] deals with articular cartilage injury of the knee in rabbits. The data set is described as follows: Macroscopic degree of healing in rabbit articular cartilage injury model. The class given is in vivo. The following applies: for Degree of healing Distal trochlear sulcus / Degree of healing Medial trochlear ridge / Degree of healing Proximal trochlear sulcus: individual rabbits, 3 weeks after operation; for average value of quantified data (degree of healing, points): − = 0 to +++ = 3 points. How it is done:
The cartilage regeneration-promoting effect of hydroxytyrosol obtained in Production Example 1 was investigated using a rabbit articular cartilage injury model prepared experimentally.
Six female and six male rabbits (New Zealand white, 16 weeks old when introduced, body weight: from 2.00 kg to 2.55 kg) were habituated for one week under the conditions of one rabbit per cage, temperature: from 23° C. to 25° C., relative humidity: from 50% to 60%, a light/dark cycle of 12 h, 12 times air changes per hour). During this period, animals were fed with feed, which is sold commercially, and sterile tap water ad libitum.
After the period, rabbits were divided at random into two groups so that each group contains three female and three male rabbits. One group was designated as a control group and the other as a hydroxytyrosol administration group (hereinafter, HT group).
(§1) The rabbit articular cartilage injury model was prepared based on the method of Hashida et. al. (See, Macromolecular Bioscience, 3, (2003) 596-603), and Tamai et. al. (See, Carbohydrate Polymers, 48, (2002) 369-378, and Carbohydrate Polymers, 54, (2003) 251-262).
(§2) Initially, each animal was anesthetized by injecting pentobarbital sodium (40 mg/kg) intraperitoneally. Next, hairs at the knee joint of the left hind limb of the animal were clipped and disinfected with 0.5% chlorhexidine gluconate solution and 70% ethanol solution. Then, an incision was made on the skin on the lateral portion of the knee joint from the central part of the femur toward the tibial tuberosity. The articular capsule was exposed and incised. Further, the knee joint was exposed completely by dislocating the patella toward the medial side. Three holes of 2 mm size in diameter and 4 mm in depth were made by using a handdrill one at the medial trochlear ridge and two at the trochlear sulcus of the femur. The incised portion was washed with sterile saline solution and the articular capsule, and at the same time, the subcutaneous tissues and the skin were sutured with a synthetic absorbent thread and with nylon thread, respectively. During one week after the operation, the sutured portion of the skin was disinfected by povidone-iodine once a day and 10 mg/kg of oxytetracycline hydrochloride was subcutaneously administered twice a day.
(§3) After the formation of injury to articular cartilage, for the HT group, the product containing 20% by mass of hydroxytyrosol obtained in Production Example 1 was dissolved in tap water and administered using a water bottle at a rate of 500 mg/kg (100 mg/kg of hydroxytyrosol) per day for 21 days. After making sure that all of the water containing the drug was taken in, rabbits were fed with sterile tap water. The control was fed with sterile tap water ad libitum.
After the experimental period, all animals were euthanized by overdose using an intravenous injection of pentobarbital sodium (80 mg/kg). Then, knee joints were incised, and the conditions of joint cartilages were macroscopically observed. The degree, to which the injury of cartilage was healed, was evaluated based on the following standards.
• −: Degree of healing is less than 50% • +: Degree of healing is from 50% to 60% • ++: Degree of healing is from 60% to 80% • +++: Degree of healing is from 80% to 100%
Further, the above evaluation was assigned numbers: (−) was assigned with 0 point (+) was assigned with 1 point, (++) was assigned with 2 points, and (+++) was assigned with 3 points. The degree of healing of articular cartilage was expressed numerically, and Mann-Whitney's U test was performed between the control group and the HT group.
(§4) In the same way as in Example 1, the cartilage regeneration-promoting effects were investigated with respect to hydroxytyrosol (100 mg/kg per day, HT group) and with respect to glucosamine hydrochloride (800 mg/kg per day, hereinafter, GAH group) for comparison. The control group was set in the same way as in Example 1.

The test system is the same in data set [2]. Kind of data set: Histopathological examination (hematoxylin/eosin) of injured knee articular cartilage. The class given is in vivo, rabbit. The following applies: hematoxylin/eosin staining. The protocol:
as §1, §2, §3
For each animal, femur was collected and fixed by a 10% neutral buffered forrnalin solution. […]

The subject of a further data set is proteoglycan. Kind of data set: Image analysis of Safranin O staining (proteoglycan) of knee articular cartilage. Type of data set: in vivo, rabbit. The protocol:
as §1, §2, §3
The specimens stained with Safranin O and with Alcian blue were prepared in the same way as mentioned above and subjected to image analysis. The 200 times magnified images of specimens were scanned into the computer using a digital camera (Olympus DP70, manufactured by Olympus Corporation). Then, two locations (20,000 pixels) were randomly sampled, and the density of the site stained in a specific color (site stained with Safranin O:
corresponding to proteoglycan, site stained with Alcian blue: corresponding to glycosaminoglycan) was measured. For the obtained values, Student's t-test was performed between the control group and the HT group.
as §4

Data set [3] is described as follows: Observation of general conditions and body weight. Type of data set: in vivo, rabbit. How it is done: as §3
During the experimental period, diarrhea, appetite, and hair gloss or coat color of each rabbit were observed. In addition, body weight was measured per week.
as §4

The mark [4] stands for this setting: Example 2, HT 100 mg/kg per day, GAH 800 mg/kg per day, hydrochloride, female rabbits.
Setting [5] is: Example 2, HT 100 mg/kg per day, GAH 800 mg/kg per day, hydrochloride, male rabbits.
Where [6] appears, read: Example 2, injured site of cartilage.
Setting [7] is: Example 1, 100 mg/kg of hydroxytyrosol per day for 21 days, 100 mg/kg.
[8] abbreviates: Example 2, HT 100 mg/kg per day, GAH 800 mg/kg per day, female rabbits.
[9] abbreviates: Example 2, HT 100 mg/kg per day, GAH 800 mg/kg per day, male rabbits.

Take `Cl.N[C@H]1C(O)O[C@H](CO)[C@@H](O)[C@@H]1O` (some centres unmarked) [GAH group, glucosamine hydrochloride, reference compound]: the “cartilage healing / regeneration compared with the control group” value in data set [1] (Example 2, HT p<0.01, GAH p<0.05, hydrochloride) is “promoted significantly”. In addition, the “cartilage healing / regeneration compared with the control group” value in data set [1] (Example 2, HT p<0.01, GAH p<0.05, listed as glucosamine hydrochloride, hydrochloride) is recorded as “promoted the regeneration of cartilage”. Further, in data set [1] (setting [4]), the “Degree of healing Distal trochlear sulcus” value was “++ (Degree of healing is from 60% to 80%); also recorded: +++ (Degree of healing is from 80% to 100%)”, the “Degree of healing Medial trochlear ridge” value is “+++ (Degree of healing is from 80% to 100%)” and the “Degree of healing Proximal trochlear sulcus” value was “++ (Degree of healing is from 60% to 80%); also recorded: +++ (Degree of healing is from 80% to 100%)”. Further, in data set [1] (setting [5]), the “Degree of healing Distal trochlear sulcus” value is “++ (Degree of healing is from 60% to 80%); also recorded: + (Degree of healing is from 50% to 60%)”, the “Degree of healing Medial trochlear ridge” value was “+++ (Degree of healing is from 80% to 100%); also recorded: ++ (Degree of healing is from 60% to 80%)” and the “Degree of healing Proximal trochlear sulcus” value was “+ (Degree of healing is from 50% to 60%); also recorded: +++ (Degree of healing is from 80% to 100%)”. Besides, in data set [1] (Example 2, control group 5.33), the “average value of quantified data (degree of healing, points)” value is 7.17. In addition, the “histopathological findings at the site at which injury was created” value in data set [2] (Example 2) is recorded as “almost the same findings as those of the HT group”. Besides, the “density at the site stained with Safranin O (proteoglycan), injured site of cartilage, vs control” value in the data set on proteoglycan (setting [6]) is “significant increase”. For the same molecule, in the data set on proteoglycan (Example 2), the “density at the site stained with Safranin O, normal site and growth zone of cartilage, vs control” value was “no difference”. The “Body weight changes vs control group” value in data set [3] (Example 2) is listed as “almost the same as that of the control group”. Also, the general conditions entry in data set [3] (Example 2, HT 100 mg/kg per day, GAH 800 mg/kg per day) is “change in general conditions was not observed”.
As to `OCCc1ccc(O)c(O)c1` [HT group, 2-(3,4-Dihydroxyphenyl)ethanol], the “cartilage healing / regeneration compared with the control group” value in data set [1] (Example 1, Mann-Whitney's U test, p<0.05) is recorded as “promoted significantly”; in data set [1] (Example 1, Mann-Whitney's U test, p<0.05, listed as hydroxytyrosol), “promoted the regeneration of cartilage”; in data set [1] (Example 2, HT p<0.01, GAH p<0.05) it was “promoted significantly”; in data set [1] (Example 2, HT p<0.01, GAH p<0.05, listed as hydroxytyrosol) it was “promoted the regeneration of cartilage”. Moreover, the entries for the “Degree of healing Distal trochlear sulcus” value in data set [1] (setting [7]), in data set [1] (setting [8]) and in data set [1] (setting [9]) were “+++ (Degree of healing is from 80% to 100%); also recorded: + (Degree of healing is from 50% to 60%); also recorded: ++ (Degree of healing is from 60% to 80%)”, “+++ (Degree of healing is from 80% to 100%)” and “+++ (Degree of healing is from 80% to 100%)”, respectively. For the same molecule, the “Degree of healing Proximal trochlear sulcus” value in data set [1] (setting [7]) is listed as “++ (Degree of healing is from 60% to 80%); also recorded: +++ (Degree of healing is from 80% to 100%); also recorded: + (Degree of healing is from 50% to 60%)”; in data set [1] (setting [8]), “+++ (Degree of healing is from 80% to 100%); also recorded: ++ (Degree of healing is from 60% to 80%)”; in data set [1] (setting [9]), “++ (Degree of healing is from 60% to 80%); also recorded: +++ (Degree of healing is from 80% to 100%)”. In addition, the “Degree of healing Medial trochlear ridge” value in data set [1] (Example 1, 100 mg/kg of hydroxytyrosol per day in drinking water for 21 days, 100 mg/kg) is reported as “+++ (Degree of healing is from 80% to 100%); also recorded: ++ (Degree of healing is from 60% to 80%); also recorded: + (Degree of healing is from 50% to 60%)”; in data set [1] (setting [8]), “+++ (Degree of healing is from 80% to 100%)”; in data set [1] (setting [9]), “++ (Degree of healing is from 60% to 80%); also recorded: +++ (Degree of healing is from 80% to 100%)”. In addition, the “average value of quantified data (degree of healing, points)” value turned out to be 7.17 in data set [1] (Example 1, control group 4.83) and 8.17 in data set [1] (Example 2, control group 5.33). The “histopathological findings at the site at which injury was created” value in data set [2] (Example 1) and in data set [2] (Example 2) was “matured chondrocytes were found extensively” in each case. Further, the “density at the site stained with Safranin O, normal site and growth zone of cartilage, vs control” value with proteoglycan (Example 1) and in the data set with proteoglycan (Example 2) was “no difference” in each case. The “density at the site stained with Safranin O (proteoglycan), injured site of cartilage, vs control” value was “significant increase” in the data set on proteoglycan (Example 1, site of cartilage at which injury was created) and “significant increase” in the data set with proteoglycan (setting [6]). Moreover, the “Body weight changes vs control group” value in data set [3] (rabbit, in vivo) was “almost the same as that of the control group”. The “body weight change during test period vs control group” value in data set [3] (rabbit, in vivo) is reported as “significant difference was not observed”. Also, in data set [3] (rabbit, in vivo, 100 mg/kg), the “general conditions (diarrhea, appetite, hair gloss or coat color)” value is given as “marked change was not observed”.
